Columns and labels:
egg yolk = assay: Egg yolk colour: reflectance colorimetry and Roche Yolk Colour Fan; assay type: in vivo, laying hens (ISA Brown); conditions: egg yolk, laying hens
Description: (§1) Pigmentation efficacy was assessed in egg yolk, in the back skin of the broiler carcass, and in broiler shanks by reflectance colorimetry accompanied by visual scoring (Roche Colour Fan). The deposition of the ethyl-β-apo-8′-carotenoate (control) and the other carotenoid esters was determined in egg yolk and in the broiler back skin. In addition, the carotenoid levels in plasma and abdominal fat were measured.
The trials were carried out following the standard experimental design used for egg yolk pigmentation trials at the Roche Research Center for Animal Nutrition (CRNA, F-68305 Village-Neuf, France). Each year in February the pigmentation trials are started with a new flock of layers. At the beginning of the trials the age of the laying hens (192 birds, type ‘ISA Brown’) were as follows:
Preceding the trials the hens were fed a low carotenoid basal diet (produced at the CRNA) without carotenoid supplementation for at least 28 days. During the trials, the control group received the low carotenoid basal diet containing less than 2 mg total xanthophylls per kg of feed. The other animals were fed this diet supplemented with the appropriate pigments for three weeks. The diet was given to the animals ad libitum in mash form. The hens had free access to tap water. Beside the unsupplemented control treatment, treatments were carried out involving the provision of supplemented feed, the results of these treatments being presented in Tables 7-9.
Egg yolk color was assessed as described by Steinberg, et al. (Arch. Geflügelk 64 (4), 180-187 (2000)). The yolks were manually separated from the whites of the eggs. The isolated yolks of three to six eggs were combined, weighed, and stirred with a glass rod until the color appeared homogeneous. The color hue was visually scored using the Roche Yolk Colour Fan (RYCF, version 1993). An aliquot of the pooled egg yolks was transferred into a glass cuvette yielding an approximately 2 cm thick layer. The color was then measured by means of a Dr. Lange Xeno Color LS 100 spectro-colorimeter with diffuse D65-illumination and a 8° viewing angle.
(§2) The color data were expressed as CIE L*a*b*-values including h*(hue) and C* (chroma). The values given in the tables per treatment and trial represent averages of color measurements of four egg yolk pools, ten broiler back skins, or ten broiler shanks (5 males and 5 females).

[1] = Carotenoid ester content in plasma, back skin and abdominal fat of broilers (HPLC); assay type: in vivo, broiler chickens (Ross 308, Ross 508); conditions: average over doses, Table 4
Description: as §1
(§3) The trials were carried out using chickens of the type Ross 308 (trials MC-24/98 and MC-02/99) and Ross 508 (trials MC-11/99, MC-16/99, MC-24/99, and MC-03/00) (Couvir de la Bohardière, F-49290 Saint Laurent de la Plaine). One-day old broiler chickens, separated by sex, were divided by weight into experimental groups of ten animals each and reared in floor pens littered with wood shavings. The chickens were fed a low carotenoid basal grower diet until day 22 (trials MC-24/98, MC-02/99, and MC-11/99) or until day 15 (trials MC-16/99, MC-24/99, and MC-03/00). The low carotenoid basal grower diet contained less than 2 mg total xanthophylls per kg of feed, and its composition is described in Table 2. For the subsequent experimental period of three weeks, the birds received the basal diet supplemented with an appropriate pigment. The feed was given in the form of crumbled pellets during the first week and as pellets thereafter. The animals had unrestricted access to feed and water. A given treatment involved one group of male and one group of female chickens. Each group of chickens was weighed at day 22 (trials MC-24/98, MC-02/99, and MC-11/99) or day 15 (trials MC-16/99, MC-24/99, and MC-03/00) and on day 43. On day 42, five chickens per group were selected at random, labelled, and blood samples were taken from the jugular vein. At the end of the experiment (day 44) the animals were slaughtered in a commercial slaughterhouse (Freyburger, Dannemarie, France). The following day, the color of the skin (hind back of carcasses) and the shanks of the labelled chicken were measured by reflectance colorimetry (Minolta CR 200 apparatus, CIE-Lab system). Samples of the dorsal skin and abdominal fat were obtained, pooled for each experimental group, and the carotenoid concentration was determined. The concentration of carotenoids in feed, plasma, skin, and abdominal fat was determined by standard procedures as described after Tables 1 and 2.
The content of the various carotenoid esters in feed was determined according to the method of Schierle, et al. (J. Schierle , N. Faccin, V. Riegert, Analytical Methods for Vitamins and Carotenoids in Feed, Revised supplement: Determination of Stabilized Apocarotenoic Ester and Canthaxanthin in Premixes and Feeds, Roche publication no. 50771 (1995), publicly available from. F. Hoffmann-La Roche Ltd., CH-4070 Basel). This method was modified in that the mobile phase of the normal-phase HPLC contained 0.5% instead of 7% acetone in n-hexane, improving the separation of the E/Z-isomers of the carotenoid esters. Peaks were related to all-E- and Z-isomers of the various carotenoid esters by chromatography of heat-isomerized solutions of the respective reference substances in n-hexane. The HPLC system was calibrated with the all-E-isomer of ethyl β-apo-8′-carotenoate. The response factor of the various derivatives was deduced from that of ethyl β-apo-8′-carotenoate taking into account the respective molecular weight. The content of the Z-isomer fractions was calculated based on the response of the all-E-isomer and using a correction factor of 1.4 to account for the lower specific absorbance of the Z-isomers.
(§4) The HPLC-system for in-feed analysis was also used to quantify the carotenoid esters in egg yolk, broiler tissues, and broiler plasma, but the extraction procedure was different for the various matrices.
For plasma extraction, 1.0 g of the well-mixed plasma sample was introduced into a 10 ml test tube with 1.0 ml of demineralized water and 4.0 ml of ethanol, and the contents mixed on a Vortex shaker. […]

[2] = Carotenoid ester content and deposition rate in egg yolk of laying hens (HPLC); assay type: in vivo, laying hens (ISA Brown); conditions: egg yolk; for Deposition Rate % of Controls: Table 10
Description: as §1
Each year in February the pigmentation trials are started with a new flock of layers.
Preceding the trials the hens were fed a low carotenoid basal diet (produced at the CRNA) without carotenoid supplementation for at least 28 days. During the trials, the control group received the low carotenoid basal diet containing less than 2 mg total xanthophylls per kg of feed. The other animals were fed this diet supplemented with the appropriate pigments for three weeks. The diet was given to the animals ad libitum in mash form. The hens had free access to tap water.
Peaks were related to all-E- and Z-isomers of the various carotenoid esters by chromatography of heat-isomerized solutions of the respective reference substances in n-hexane. The HPLC system was calibrated with the all-E-isomer of ethyl β-apo-8′-carotenoate. The response factor of the various derivatives was deduced from that of ethyl β-apo-8′-carotenoate taking into account the respective molecular weight. The content of the Z-isomer fractions was calculated based on the response of the all-E-isomer and using a correction factor of 1.4 to account for the lower specific absorbance of the Z-isomers.
as §4
For the extraction of egg yolk, 10 g of pooled and homogenised yolk were mixed with 10 ml of demineralized water using a dispersion instrument (Polytron). 1.0 g of diluted egg yolk was introduced into a 10 ml test tube with 1.0 ml of demineralized water and 2.0 ml of ethanol, and the contents were mixed on a Vortex shaker. After addition of 4.0 ml of n-hexane, the mixture was further treated as described for plasma.

[3] = tested on: skin and shanks of broilers; assay: Reflectance colorimetry and visual classification of skin and shanks of broilers; assay type: in vivo, broiler chickens (Ross 308, Ross 508); set-up: key to Shanks Visual Classification / Skin Visual Classification: −; (+); +; ++ = good color; o = orange; conditions: dry carcasses, average over doses, Table 6
Description: as §1, §3
The color of broiler skin and shanks was measured using a tristimulus Minolta CR-300 Chromameter with diffuse D65-illumination and a 0° viewing angle. The color of the skin was read at three different points on the back of the dry broiler carcasses and average values of the triple measurements were recorded. The color of shanks was measured using single measurements at the ball between the toes.
as §2

[4] = trial H-25/99, 5.0 mg/kg feed, Table 8
[5] = trial H-25/99, 5.0 mg/kg feed, Table 10
[6] = trial H-18/99, 5.0 mg/kg feed, Table 8
[7] = trial H-18/99, 5.0 mg/kg feed, Table 10
[8] = trial H-12/99, 2, 4, 8 mg/kg feed, Table 8
[9] = trial H-12/99, 2, 4, 8 mg/kg feed, Table 10
[10] = control, n = 16, 1.0-8.0 mg/kg feed

**Q.** For CCC(C)COC(=O)C(C)=CC=CC(C)=CC=CC=C(C)C=CC=C(C)C=CC1=C(C)CCCC1(C)C (stereo not drawn) [(7), 2-methyl-butyl beta-apo-8′-carotenoate], which “Color Fan Value % of Controls” value (egg yolk; [4]) is on record?
**A.** The value was 108%.

**Q.** And the “Chroma C*ab % of Controls” value (egg yolk; [5])?
**A.** Its value is 87%.

**Q.** What about the “Color Fan Value % of Controls” value (egg yolk; [5]) of the same compound?
**A.** The value was 108%.

**Q.** What about the “Color Hue h*ab % of Controls” value (egg yolk; [5]) of the same compound?
**A.** The value was 106%.

**Q.** What about the “Analytical Content as Equivalent of Ethyl β-apo-8′-carotenoate in % of control Fat” value [1] of the same compound?
**A.** The value was 45%.

**Q.** What about the “Analytical Content as Equivalent of Ethyl β-apo-8′-carotenoate in % of control Plasma” value [1] of the same compound?
**A.** Its value is 62%.

**Q.** What about the “Analytical Content as Equivalent of Ethyl β-apo-8′-carotenoate in % of control Skin” value [1] of the same compound?
**A.** Its value is 40%.

**Q.** And the “Deposition Rate Target Values % of Controls” value [2, 4]?
**A.** Its value is 95%.

**Q.** And the “Ethyl β-apo-8′-carotenoate Equivalents % of Controls” value [2, 4]?
**A.** Its value is 86%.

**Q.** And the “Deposition Rate % of Controls” value ([2]; trial H-25/99, 5.0 mg/kg feed)?
**A.** Its value is 95%.

**Q.** What about the “Shanks Chroma C*ab % of Controls” value [3] of the same compound?
**A.** Its value is 85%.

**Q.** And the “Shanks Color Hue h*ab % of Controls” value [3]?
**A.** The value was 101%.

**Q.** What about the “Shanks Visual Classification” value [3] of the same compound?
**A.** The value was “(+)”.

**Q.** What about the “Skin Chroma C*ab % of Controls” value [3] of the same compound?
**A.** The value was 80%.

**Q.** And the “Skin Color Hue h*ab % of Controls” value [3]?
**A.** Its value is 94%.

**Q.** What about the “Skin Visual Classification” value [3] of the same compound?
**A.** The value was “(+)”.

**Q.** Which results are given for CC(C=CC=C(C)C=CC1=C(C)CCCC1(C)C)=CC=CC=C(C)C=CC=C(C)C(=O)OCC(C)C [(4), isobutyl beta-apo-8′-carotenoate]?
**A.** Color Fan Value % of Controls (egg yolk; [6]): 116%; Chroma C*ab % of Controls (egg yolk; [7]): 104%; Color Fan Value % of Controls (egg yolk; [7]): 116%; Color Hue h*ab % of Controls (egg yolk; [7]): 101%; Analytical Content as Equivalent of Ethyl β-apo-8′-carotenoate in % of control Plasma [1]: 58%; Deposition Rate Target Values % of Controls [2, 6]: 83%; Ethyl β-apo-8′-carotenoate Equivalents % of Controls [2, 6]: 74%; Deposition Rate % of Controls ([2]; trial H-18/99, 5.0 mg/kg feed): 83%; Shanks Chroma C*ab % of Controls [3]: 72%; Shanks Color Hue h*ab % of Controls [3]: 105%; Shanks Visual Classification [3]: (+); Skin Chroma C*ab % of Controls [3]: 84%; Skin Color Hue h*ab % of Controls [3]: 98%; Skin Visual Classification [3]: (+)

**Q.** With CCCOC(=O)C(C)=CC=CC(C)=CC=CC=C(C)C=CC=C(C)C=CC1=C(C)CCCC1(C)C [(2), n-propyl beta-apo-8′-carotenoate] as the compound, how does the “Color Fan Value % of Controls” value (egg yolk; [8]) read?
**A.** Its value is 110%.

**Q.** What about the “Chroma C*ab % of Controls” value (egg yolk; [9]) of the same compound?
**A.** The value was 95%.

**Q.** What about the “Color Fan Value % of Controls” value (egg yolk; [9]) of the same compound?
**A.** Its value is 110%.

**Q.** What about the “Color Hue h*ab % of Controls” value (egg yolk; [9]) of the same compound?
**A.** The value was 101%.

**Q.** What about the “Analytical Content as Equivalent of Ethyl β-apo-8′-carotenoate in % of control Fat” value [1] of the same compound?
**A.** The value was 39%.

**Q.** And the “Analytical Content as Equivalent of Ethyl β-apo-8′-carotenoate in % of control Plasma” value [1]?
**A.** The value was 68%.

**Q.** And the “Analytical Content as Equivalent of Ethyl β-apo-8′-carotenoate in % of control Skin” value [1]?
**A.** Its value is 45%.

**Q.** What about the “Deposition Rate Target Values % of Controls” value [2, 8] of the same compound?
**A.** The value was 77%.

**Q.** And the “Ethyl β-apo-8′-carotenoate Equivalents % of Controls” value [2, 8]?
**A.** Its value is 73%.

**Q.** What about the “Deposition Rate % of Controls” value ([2]; trial H-12/99, 2, 4, 8 mg/kg feed) of the same compound?
**A.** Its value is 77%.

**Q.** What about the “Shanks Chroma C*ab % of Controls” value [3] of the same compound?
**A.** Its value is 108%.

**Q.** And the “Shanks Color Hue h*ab % of Controls” value [3]?
**A.** Its value is 99%.

**Q.** And the “Shanks Visual Classification” value [3]?
**A.** The value was “(+)”.

**Q.** What about the “Skin Chroma C*ab % of Controls” value [3] of the same compound?
**A.** The value was 93%.

**Q.** And the “Skin Color Hue h*ab % of Controls” value [3]?
**A.** The value was 97%.

**Q.** What about the “Skin Visual Classification” value [3] of the same compound?
**A.** The value was “(+)”.

**Q.** Which results are given for CCOC(=O)/C(C)=C/C=C/C(C)=C/C=C/C=C(C)/C=C/C=C(C)/C=C/C1=C(C)CCCC1(C)C [Ethyl β-apo-8′-carotenoate, ethyl beta-apo-8′-carotenoate, reference compound]?
**A.** Color Fan Value % of Controls (egg yolk; [10]): 100%; Deposition Rate Target Values % of Controls [2, 10]: 100%; Ethyl β-apo-8′-carotenoate Equivalents % of Controls [2, 10]: 100%
